This passage reports IC50 results from patent publication US20230048132A1, “CYCLIN-DEPENDENT KINASE INHIBITORS” (SPV THERAPEUTICS INC., priority 2018, published 2023).

Test in all cases: CDK inhibition assay (microfluidic LabChip, IC50 format)
One assay has as its target T1, CDK9-CYCLINT1 (Homo sapiens, UniProt P50750).
T1 construct: purchased Carna
The format is biochemical. The note with it: read-out: CDK9 CyclinT1 IC50.

Another assay deals with T2, CDK2-CYCLINA (Homo sapiens, UniProt P24941).
T2 construct: purchased Millipore
The format is biochemical. The note with it: read-out: CDK2 CyclinA IC50.

The target of the next assay is CDK4-CYCLIND1 (Homo sapiens, UniProt P11802). The note with it: a second value in parentheses for some compounds.
Chain of CDK4-CYCLIND1 (P11802 whole entry): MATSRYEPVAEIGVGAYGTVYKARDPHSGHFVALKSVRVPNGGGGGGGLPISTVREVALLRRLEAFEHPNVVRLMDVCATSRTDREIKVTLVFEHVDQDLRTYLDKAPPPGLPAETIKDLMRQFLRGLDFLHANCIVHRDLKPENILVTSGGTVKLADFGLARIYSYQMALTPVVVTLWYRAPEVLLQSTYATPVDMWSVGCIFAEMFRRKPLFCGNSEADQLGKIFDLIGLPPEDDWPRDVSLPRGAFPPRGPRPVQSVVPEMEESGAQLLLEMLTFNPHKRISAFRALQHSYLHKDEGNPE
Chain of CDK4-CYCLIND1 (P24385 whole entry partner): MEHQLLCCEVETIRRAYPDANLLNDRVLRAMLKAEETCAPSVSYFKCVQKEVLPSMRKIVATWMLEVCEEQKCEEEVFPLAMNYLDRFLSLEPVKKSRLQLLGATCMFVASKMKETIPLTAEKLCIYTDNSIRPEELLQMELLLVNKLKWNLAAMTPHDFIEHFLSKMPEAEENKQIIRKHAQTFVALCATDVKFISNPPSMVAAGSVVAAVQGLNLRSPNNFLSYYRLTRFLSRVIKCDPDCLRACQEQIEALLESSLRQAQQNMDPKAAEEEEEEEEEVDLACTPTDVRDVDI
The target of a further assay is CDK1/B (Homo sapiens, UniProt P06493). The format is biochemical.
Chain of CDK1/B (P06493 whole entry, species assumed): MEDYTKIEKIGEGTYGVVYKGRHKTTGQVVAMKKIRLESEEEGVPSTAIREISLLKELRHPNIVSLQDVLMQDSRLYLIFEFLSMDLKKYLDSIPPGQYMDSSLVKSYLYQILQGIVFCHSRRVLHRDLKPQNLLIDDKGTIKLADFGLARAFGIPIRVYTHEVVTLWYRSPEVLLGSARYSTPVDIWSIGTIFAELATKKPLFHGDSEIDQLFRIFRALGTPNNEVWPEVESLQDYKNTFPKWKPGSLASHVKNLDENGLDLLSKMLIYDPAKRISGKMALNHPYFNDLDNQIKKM
Chain of CDK1/B (P14635 whole entry partner, species assumed): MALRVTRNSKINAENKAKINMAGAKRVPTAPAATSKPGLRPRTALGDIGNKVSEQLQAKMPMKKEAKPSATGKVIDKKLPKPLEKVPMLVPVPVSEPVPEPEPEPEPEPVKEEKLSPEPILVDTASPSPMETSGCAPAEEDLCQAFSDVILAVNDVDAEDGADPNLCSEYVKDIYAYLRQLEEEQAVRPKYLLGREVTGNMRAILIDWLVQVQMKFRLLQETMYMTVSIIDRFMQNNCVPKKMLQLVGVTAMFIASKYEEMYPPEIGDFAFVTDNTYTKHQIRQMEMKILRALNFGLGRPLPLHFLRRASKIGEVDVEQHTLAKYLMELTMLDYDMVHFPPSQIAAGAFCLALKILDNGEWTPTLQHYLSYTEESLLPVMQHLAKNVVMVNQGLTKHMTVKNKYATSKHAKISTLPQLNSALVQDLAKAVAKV
In a further assay the target is CDK7 CyclinH (Homo sapiens, UniProt P50613). The format is biochemical.
Chain of CDK7 CyclinH (P50613 whole entry): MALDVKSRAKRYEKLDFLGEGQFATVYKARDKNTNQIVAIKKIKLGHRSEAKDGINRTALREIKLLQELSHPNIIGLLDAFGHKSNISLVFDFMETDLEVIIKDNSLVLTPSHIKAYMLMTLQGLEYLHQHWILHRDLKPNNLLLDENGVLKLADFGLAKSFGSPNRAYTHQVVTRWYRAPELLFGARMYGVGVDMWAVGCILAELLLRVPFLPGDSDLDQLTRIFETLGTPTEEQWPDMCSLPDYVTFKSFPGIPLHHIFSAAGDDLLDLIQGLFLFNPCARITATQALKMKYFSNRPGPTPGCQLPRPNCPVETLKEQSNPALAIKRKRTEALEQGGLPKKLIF
Chain of CDK7 CyclinH (P51946 whole entry partner): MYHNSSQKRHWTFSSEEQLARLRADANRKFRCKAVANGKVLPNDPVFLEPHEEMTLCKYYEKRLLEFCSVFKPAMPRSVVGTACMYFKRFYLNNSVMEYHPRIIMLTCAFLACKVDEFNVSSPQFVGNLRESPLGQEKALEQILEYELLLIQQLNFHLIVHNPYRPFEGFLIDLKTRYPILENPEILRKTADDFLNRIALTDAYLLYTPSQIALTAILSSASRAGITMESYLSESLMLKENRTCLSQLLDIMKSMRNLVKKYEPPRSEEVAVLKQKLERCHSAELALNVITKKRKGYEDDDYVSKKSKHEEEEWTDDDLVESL
Chain of CDK7 CyclinH (P51948 whole entry partner): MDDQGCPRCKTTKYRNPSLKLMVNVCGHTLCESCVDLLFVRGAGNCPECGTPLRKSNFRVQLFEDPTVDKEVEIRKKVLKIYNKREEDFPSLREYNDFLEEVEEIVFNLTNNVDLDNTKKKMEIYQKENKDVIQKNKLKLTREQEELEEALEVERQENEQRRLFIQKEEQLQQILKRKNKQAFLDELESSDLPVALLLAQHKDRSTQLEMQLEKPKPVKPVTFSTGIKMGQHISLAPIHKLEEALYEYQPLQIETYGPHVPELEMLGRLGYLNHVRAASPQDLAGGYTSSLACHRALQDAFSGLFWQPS
Where [1] appears, read: CDK4 CyclinD1 IC50, Table 4b, lower part.

Where two headings read alike, the source gives them in different places. Some results are limits rather than exact numbers.

T1 sequence (P50750 whole entry): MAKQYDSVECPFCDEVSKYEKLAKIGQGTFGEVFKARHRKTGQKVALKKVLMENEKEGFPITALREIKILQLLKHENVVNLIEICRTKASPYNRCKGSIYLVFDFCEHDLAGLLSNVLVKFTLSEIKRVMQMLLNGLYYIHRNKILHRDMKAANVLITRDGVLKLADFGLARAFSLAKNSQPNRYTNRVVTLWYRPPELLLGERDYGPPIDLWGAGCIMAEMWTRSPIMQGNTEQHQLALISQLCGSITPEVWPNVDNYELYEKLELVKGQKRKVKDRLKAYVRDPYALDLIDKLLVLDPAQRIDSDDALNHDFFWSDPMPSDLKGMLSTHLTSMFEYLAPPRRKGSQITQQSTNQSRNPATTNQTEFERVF
T1 sequence (O60563 whole entry partner): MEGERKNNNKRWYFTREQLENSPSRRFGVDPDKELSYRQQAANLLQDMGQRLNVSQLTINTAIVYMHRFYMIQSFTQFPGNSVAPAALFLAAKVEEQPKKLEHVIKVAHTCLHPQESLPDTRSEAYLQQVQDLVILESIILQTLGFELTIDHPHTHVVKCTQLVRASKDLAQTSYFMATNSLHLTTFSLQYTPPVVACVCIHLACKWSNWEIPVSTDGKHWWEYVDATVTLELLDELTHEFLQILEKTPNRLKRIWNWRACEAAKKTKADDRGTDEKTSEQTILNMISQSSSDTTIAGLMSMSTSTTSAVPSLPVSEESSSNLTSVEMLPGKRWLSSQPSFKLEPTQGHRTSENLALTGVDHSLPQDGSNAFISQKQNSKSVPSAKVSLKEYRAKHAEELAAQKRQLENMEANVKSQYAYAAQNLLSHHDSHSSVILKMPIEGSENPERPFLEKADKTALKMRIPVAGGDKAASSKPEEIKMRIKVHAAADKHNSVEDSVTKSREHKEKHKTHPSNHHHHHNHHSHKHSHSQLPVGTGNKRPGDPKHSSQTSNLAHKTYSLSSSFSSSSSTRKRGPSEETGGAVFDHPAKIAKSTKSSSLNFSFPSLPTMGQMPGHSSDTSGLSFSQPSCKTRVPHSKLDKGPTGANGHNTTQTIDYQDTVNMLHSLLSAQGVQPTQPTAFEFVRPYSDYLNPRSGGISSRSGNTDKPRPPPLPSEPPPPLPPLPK

What is called IC50 is the concentration that inhibits the measured activity by half. For `CC1CN(c2ccc(Nc3ncc4c(n3)N(C3CCCC3)C(=O)[C@]3(CCNC3=O)C4)cc2)CC(C)N1` (stereo partly drawn) [Example D199, (6S)-8-cyclopentyl-2-((4-(3,5-dimethylpiperazin-1-yl)phenyl)amino)-5,8-dihydro-7H-spiro[pyrido[2,3-d]pyrimidine-6,3′-pyrrolidine]-2′,7-dione], the IC50 at CDK9-CYCLINT1 (Table 4b, lower part) was 3.74 nM; on CDK2-CYCLINA (Table 4b, lower part) it was 74.6 nM; at CDK4-CYCLIND1 (setting [1]), less than 3.2 nM; on CDK1/B (Table 4b, lower part), 353 nM; at CDK7 CyclinH (Table 4b, lower part) it was 406 nM.

Consider `CN1CC2(C1)CN(c1ccc(Nc3ncc4c(n3)N(C3CCCC3)C(=O)[C@]3(CCNC3=O)C4)cc1F)C2` [Example D101, (S)-8-cyclopentyl-2-((3-fluoro-4-(6-methyl-2,6-diazaspiro[3.3]heptan-2-yl)phenyl)amino)-5,8-dihydro-7H-spiro[pyrido[2,3-d]pyrimidine-6,3′-pyrrolidine]-2′,7-dione], for which the IC50 at CDK9-CYCLINT1 (Table 4b, lower part) was less than 3.2 nM; on CDK2-CYCLINA (Table 4b, lower part) it was 36.8 nM; at CDK4-CYCLIND1 (setting [1]) it was less than 3.2 nM; against CDK1/B (Table 4b, lower part), 167 nM; against CDK7 CyclinH (Table 4b, lower part), 162 nM.

As to `C[C@]1(O)CC[C@@H](Nc2ncc3c(n2)N(C2CCCC2)C(=O)[C@]2(CCNC2=O)C3)CC1` [Example D126, (S)-8-cyclopentyl-2-(((1s,4R)-4-hydroxy-4-methylcyclohexyl)amino)-5,8-dihydro-7H-spiro[pyrido[2,3-d]pyrimidine-6,3′-pyrrolidine]-2′,7-dione], the IC50 on CDK9-CYCLINT1 (Table 4b, lower part) was 25.4 nM; on CDK2-CYCLINA (Table 4b, lower part), 803 nM; at CDK4-CYCLIND1 (setting [1]), 22.7 nM; against CDK1/B (Table 4b, lower part), 2200 nM; at CDK7 CyclinH (Table 4b, lower part) it was more than 10000 nM.

As for `O=C1NCC[C@@]12Cc1cnc(N[C@H]3CC[C@H](NC4CCOCC4)CC3)nc1N(C13CC(C1)C3)C2=O` [Example D93, (S)-8-(bicyclo[1.1.1]pentan-1-yl)-2-(((1r,4S)-4-((tetrahydro-2H-pyran-4-yl)amino)cyclohexyl)amino)-5,8-dihydro-7H-spiro[pyrido[2,3-d]pyrimidine-6,3′-pyrrolidine]-2′,7-dione], the IC50 at CDK9-CYCLINT1 (Table 4a) amounted to 16.1 nM; on CDK2-CYCLINA (Table 4a), 723 nM; on CDK4-CYCLIND1 (CDK4 CyclinD1 IC50, Table 4a) it was 33.3 nM; on CDK1/B (Table 4a), 1100 nM; at CDK7 CyclinH (Table 4a) it was 1500 nM.

For `O=C1NCC[C@@]12Cc1cnc(Nc3ccc(N4CCN(C5CC5)CC4)cc3)nc1N(C1CCCC1)C2=O` [Example D202, (S)-8-cyclopentyl-2-((4-(4-cyclopropylpiperazin-1-yl)phenyl)amino)-5,8-dihydro-7H-spiro[pyrido[2,3-d]pyrimidine-6,3′-pyrrolidine]-2′,7-dione], the IC50 at CDK9-CYCLINT1 (Table 4b, lower part) was more than 10000 nM; at CDK2-CYCLINA (Table 4b, lower part) it was 40.4 nM; at CDK4-CYCLIND1 (setting [1]), less than 3.2 nM; against CDK1/B (Table 4b, lower part), 295 nM; at CDK7 CyclinH (Table 4b, lower part) it was 276 nM.

In the case of `CN1CCC(c2ccc(Nc3ncc4c(n3)N(C3CCCC3)C(=O)[C@]3(CCNC3=O)C4)cc2)CC1` [Example D135, (S)-8-cyclopentyl-2-((4-(1-methylpiperidin-4-yl)phenyl)amino)-5,8-dihydro-7H-spiro[pyrido[2,3-d]pyrimidine-6,3′-pyrrolidine]-2′,7-dione], the IC50 is 4.31 nM on CDK9-CYCLINT1 (Table 4b, lower part); 89.8 nM on CDK2-CYCLINA (Table 4b, lower part); less than 3.2 nM on CDK4-CYCLIND1 (setting [1]); 205 nM at CDK1/B (Table 4b, lower part); 222 nM at CDK7 CyclinH (Table 4b, lower part).

Regarding `CN1CCN(c2ccc(Nc3ncc4c(n3)N(C3CCCC3)C(=O)N([C@H]3CCNC3)C4)cc2)CC1` [Example D71, (S)-1-cyclopentyl-7-((4-(4-methylpiperazin-1-yl)phenyl)amino)-3-(pyrrolidin-3-yl)-3,4-dihydropyrimido[4,5-d]pyrimidin-2(1H)-one], the IC50 on CDK9-CYCLINT1 (Table 4a) was more than 10000 nM; on CDK2-CYCLINA (Table 4a), more than 10000 nM; on CDK4-CYCLIND1 (CDK4 CyclinD1 IC50, Table 4a), 1960 nM; at CDK1/B (Table 4a), more than 10000 nM; on CDK7 CyclinH (Table 4a), more than 10000 nM.

With `CS(=O)(=O)N1CCC(Nc2ncc3c(n2)N(C2CCCC2)C(=O)[C@]2(CCNC2=O)C3)CC1` [Example D117, (S)-8-cyclopentyl-2-((1-(methylsulfonyl)piperidin-4-yl)amino)-5,8-dihydro-7H-spiro[pyrido[2,3-d]pyrimidine-6,3′-pyrrolidine]-2′,7-dione], the IC50 on CDK9-CYCLINT1 (Table 4b, lower part) was 3.51 nM; at CDK2-CYCLINA (Table 4b, lower part), less than 3.2 nM; at CDK4-CYCLIND1 (setting [1]), less than 3.2 nM; at CDK1/B (Table 4b, lower part) it was 4.46 nM; against CDK7 CyclinH (Table 4b, lower part), 215 nM.

`CS(=O)(=O)c1ccc(Nc2ncc3c(n2)N(C2CCCC2)C(=O)[C@]2(CCNC2=O)C3)cc1` [Example D114, (S)-8-cyclopentyl-2-((4-(methylsulfonyl)phenyl)amino)-5,8-dihydro-7H-spiro[pyrido[2,3-d]pyrimidine-6,3′-pyrrolidine]-2′,7-dione]: the IC50 is less than 3.2 nM on CDK9-CYCLINT1 (Table 4b, lower part); less than 3.2 nM on CDK2-CYCLINA (Table 4b, lower part); less than 3.2 nM at CDK4-CYCLIND1 (setting [1]); 37.9 nM against CDK1/B (Table 4b, lower part); 1670 nM on CDK7 CyclinH (Table 4b, lower part).

Consider `O=C1NCC[C@@]12Cc1cnc(Nc3ccc(N4CCN(CCO)CC4)c(F)c3)nc1N(C1CCCC1)C2=O` [Example D97, (S)-8-cyclopentyl-2-((3-fluoro-4-(4-(2-hydroxyethyl)piperazin-1-yl)phenyl)amino)-5,8-dihydro-7H-spiro[pyrido[2,3-d]pyrimidine-6,3′-pyrrolidine]-2′,7-dione], for which the IC50 on CDK9-CYCLINT1 (Table 4b, lower part) was less than 3.2 nM; on CDK2-CYCLINA (Table 4b, lower part) it was 56.6 nM; on CDK4-CYCLIND1 (setting [1]), less than 3.2 nM; against CDK1/B (Table 4b, lower part), 222 nM; at CDK7 CyclinH (Table 4b, lower part), 111 nM.

In the case of `O=C1NCC[C@@]12Cc1cnc(Nc3ccc(N4CCN(CCO)CC4)c(F)c3)nc1N(C13CC(C1)C3)C2=O` [Example D99, (S)-8-(bicyclo[1.1.1]pentan-1-yl)-2-((3-fluoro-4-(4-(2-hydroxyethyl)piperazin-1-yl)phenyl)amino)-5,8-dihydro-7H-spiro[pyrido[2,3-d]pyrimidine-6,3′-pyrrolidine]-2′,7-dione], the IC50 came to 28.1 nM at CDK9-CYCLINT1 (Table 4b, lower part); 1090 nM at CDK2-CYCLINA (Table 4b, lower part); 13.3 nM at CDK4-CYCLIND1 (setting [1]); 2910 nM against CDK1/B (Table 4b, lower part); 1240 nM on CDK7 CyclinH (Table 4b, lower part).

Regarding `O=C1NCC[C@@]12Cc1cnc(Nc3ccc(OCCO)cc3)nc1N(C1CCCC1)C2=O` [Example D116, (S)-8-cyclopentyl-2-((4-(2-hydroxyethoxy)phenyl)amino)-5,8-dihydro-7H-spiro[pyrido[2,3-d]pyrimidine-6,3′-pyrrolidine]-2′,7-dione], the IC50 at CDK9-CYCLINT1 (Table 4b, lower part) was less than 3.2 nM; on CDK2-CYCLINA (Table 4b, lower part), 31.3 nM; on CDK4-CYCLIND1 (setting [1]), less than 3.2 nM; against CDK1/B (Table 4b, lower part), 232 nM; against CDK7 CyclinH (Table 4b, lower part) it was 3450 nM.

Turning to `CN1CCN(c2ccc(Nc3ncc4c(n3)N(C3CCCC3)C(=O)N([C@@H]3CCNC3)C4)cc2)CC1` [Example D74, (R)-1-cyclopentyl-7-((4-(4-methylpiperazin-1-yl)phenyl)amino)-3-(pyrrolidin-3-yl)-3,4-dihydropyrimido[4,5-d]pyrimidin-2(1H)-one], the concentration for half-maximal inhibition (IC50) is more than 10000 nM at CDK9-CYCLINT1 (Table 4a); more than 10000 nM on CDK2-CYCLINA (Table 4a); 2740 nM on CDK4-CYCLIND1 (CDK4 CyclinD1 IC50, Table 4a); more than 10000 nM against CDK1/B (Table 4a); more than 10000 nM on CDK7 CyclinH (Table 4a).

Regarding `CN1CCN(c2ccc(Nc3ncc4c(n3)N(C3CCCC3)C(=O)N(c3ccccc3F)C4)cc2F)CC1` [Example D80, 1-cyclopentyl-7-((3-fluoro-4-(4-methylpiperazin-1-yl)phenyl)amino)-3-(2-fluorophenyl)-3,4-dihydropyrimido[4,5-d]pyrimidin-2(1H)-one], the IC50 was more than 10000 nM on CDK9-CYCLINT1 (Table 4a); 7590 nM at CDK2-CYCLINA (Table 4a); 3.43 nM at CDK4-CYCLIND1 (CDK4 CyclinD1 IC50, Table 4a); more than 10000 nM on CDK1/B (Table 4a); more than 10000 nM against CDK7 CyclinH (Table 4a).

On to `CC1CN(c2ccc(Nc3ncc4c(n3)N(C35CC(C3)C5)C(=O)[C@]3(CCNC3=O)C4)cc2)CC(C)N1` (stereo partly drawn) [Example D200, (6S)-8-(bicyclo[1.1.1]pentan-1-yl)-2-((4-(3,5-dimethylpiperazin-1-yl)phenyl)amino)-5,8-dihydro-7H-spiro[pyrido[2,3-d]pyrimidine-6,3′-pyrrolidine]-2′,7-dione], for which the IC50 at CDK9-CYCLINT1 (Table 4b, lower part) was 72.6 nM; on CDK2-CYCLINA (Table 4b, lower part), 3420 nM; on CDK4-CYCLIND1 (setting [1]), 39.7 nM; against CDK1/B (Table 4b, lower part), 8670 nM; at CDK7 CyclinH (Table 4b, lower part), 3770 nM.

Regarding `CC(C)C1CCN(c2ccc(Nc3ncc4c(n3)N(C3CCCC3)C(=O)[C@]3(CCNC3=O)C4)cc2)CC1` [Example D201, (S)-8-cyclopentyl-2-((4-(4-isopropylpiperidin-1-yl)phenyl)amino)-5,8-dihydro-7H-spiro[pyrido[2,3-d]pyrimidine-6,3′-pyrrolidine]-2′,7-dione], the IC50 was determined as 7.85 nM at CDK9-CYCLINT1 (Table 4b, lower part); 424 nM at CDK2-CYCLINA (Table 4b, lower part); 5.04 nM at CDK4-CYCLIND1 (setting [1]); 2850 nM on CDK1/B (Table 4b, lower part); 2970 nM against CDK7 CyclinH (Table 4b, lower part).

Turning to `O=C1NCC[C@@]12Cc1cnc(N[C@H]3CC[C@H](NC4CCOCC4)CC3)nc1N(C1CCCC1)C2=O` [Example D92, (S)-8-cyclopentyl-2-(((1r,4S)-4-((tetrahydro-2H-pyran-4-yl)amino)cyclohexyl)amino)-5,8-dihydro-7H-spiro[pyrido[2,3-d]pyrimidine-6,3′-pyrrolidine]-2′,7-dione], the IC50 at CDK9-CYCLINT1 (Table 4a) is less than 3.2 nM; on CDK2-CYCLINA (Table 4a) it was 153 nM; on CDK4-CYCLIND1 (CDK4 CyclinD1 IC50, Table 4a), 5.56 nM; against CDK1/B (Table 4a), 219 nM; at CDK7 CyclinH (Table 4a), 343 nM.
